# Source: US12077531B2, “Imidazopyridinone compound” (KISSEI PHARMACEUTICAL CO., LTD., priority 2018, dated 2024)
# Structures can show the parent of a compound that is named as a salt.
# Molecular target: human PHD2184-418 (Homo sapiens (Human), UniProt Q9GZT9)
# Assay: PHD2 inhibitory test (fluorescence polarization, binding between PHD2 and HIF-1α)
# Conditions: for IC50: human PHD2184-418, FITC-labeled HIF-1α556-574, 2 μM 2-oxoglutarate, 37° C. 60 minutes; for inhibition at 100 µM: read-out: inhibition rate at the compound concentration of 100 μM (numerals with *), compound concentration 100 μM
# Description: Test Example 1 PHD2 Inhibitory Test
# (1) Expression and Preparation of Human PHD2184-418
# Human PHD2184-418 containing amino acid residues 184 to 418 of the protein represented by CAC42509 (GenBank accession ID) was expressed and prepared by the following method.
# An expression construct of human PHD2184-418 containing N-terminal histidine tag was introduced into pET-30a (+) vector, and the sequence was confirmed. This vector was introduced into BL21 (DE3) strain and cultured at 37° C. in LB medium containing antibiotics. After culturing, a cell lysis solution was added to the cells, and then the cells were disrupted by sonication. The disrupted suspension was centrifuged and the supernatant was purified by Ni column to give human PHD2184-418.
# Human HIF-1α556-574 (FITC-labeled HIF-1α556-574), containing N-terminal FITC-Ahx, containing amino acid residues 556 to 574 (partial peptide) of HIF-1α was used as a substrate. Using FITC-labeled HIF-1α556-574, the competitive inhibition between 2-oxoglutarate and test compounds (PHD inhibitor) was evaluated based on the change in fluorescence polarization by the following method.
# An enzyme (human PHD2184-418) and the substrate were diluted with an assay buffer (pH 7.4) containing 10 mM HEPES, 150 mM NaCl, 10 μM MnCl2-4H2O, 2 μM 2-oxoglutarate and 0.05% Tween-20. Test compounds were diluted with DMSO. Test compounds and human PHD2184-418 was added to the 384-well plate (Corning, black, opaque bottom) in advance. The reaction was started by the addition of FITC-labeled HIF-1α556-574. After incubating at 37° C. for 60 minutes, fluorescence polarization (excitation wavelength: 470 nm, fluorescence wavelength: 530 nm) was measured by PHERAstar FSX (BMG Labtech). Fluorescence polarization of each well was measured, and human PHD2 binding inhibitory activity of test compounds was calculated based on the value of test compound-free group.
# Chain of human PHD2184-418 (Q9GZT9 184-418): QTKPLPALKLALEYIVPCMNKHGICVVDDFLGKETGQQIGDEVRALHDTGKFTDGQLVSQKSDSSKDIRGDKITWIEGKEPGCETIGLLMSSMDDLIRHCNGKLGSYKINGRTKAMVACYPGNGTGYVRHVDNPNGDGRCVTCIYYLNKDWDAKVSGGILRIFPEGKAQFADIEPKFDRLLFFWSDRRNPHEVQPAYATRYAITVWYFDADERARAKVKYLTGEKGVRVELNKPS
IC50 [µM],inhibition at 100 µM [%],Structure (SMILES)
8.43,–,"Cc1cccnc1CN1CC[C@H](n2c(=O)n(-c3ccc(-c4ccccc4)cc3)c3cccnc32)C1 [Example 1, (S)-1-([1,1′-Biphenyl]-4-yl)-3-(1-((3-methylpyridin-2-yl)methyl)pyrrolidin-3-yl)-1,3-dihydro-2H-imidazo[4,5-b]pyridin-2-one]"
0.79,–,"Cn1ccnc1CN1CC[C@H](n2c(=O)n(-c3ccc(-c4ccccc4)cc3)c3cccnc32)C1 [Example 2, (S)-1-([1,1′-biphenyl]-4-yl)-3-(1-((1-methyl-1H-imidazol-2-yl)methyl)pyrrolidin-3-yl)-1,3-dihydro-2H-imidazo[4,5-b]pyridin-2-one]"
3.9,–,"Cn1ccnc1CN1CC[C@@H](n2c(=O)n(-c3ccc(-c4ccccc4)cc3)c3cccnc32)C1 [Example 3, (R)-1-([1,1′-Biphenyl]-4-yl)-3-(1-((1-methyl-1H-imidazol-2-yl)methyl)pyrrolidin-3-yl)-1,3-dihydro-2H-imidazo[4,5-b]pyridin-2-one]"
3.45,–,"O=c1n(-c2ccc(-c3ccccc3)cc2)c2cccnc2n1[C@H]1CCN(Cc2ccccn2)C1 [Example 4, (S)-1-([1,1′-Biphenyl]-4-yl)-3-(1-(pyridin-2-ylmethyl)pyrrolidin-3-yl)-1,3-dihydro-2H-imidazo[4,5-b]pyridin-2-one]"
2.98,–,"O=c1n(-c2ccc(-c3ccccc3)cc2)c2cccnc2n1[C@H]1CCN(Cc2c[nH]cn2)C1 [Example 5, (S)-3-(1-((1H-Imidazol-4-yl)methyl)pyrrolidin-3-yl)-1-([1,1′-biphenyl]-4-yl)-1,3-dihydro-2H-imidazo[4,5-b]pyridin-2-one]"
–,34,"Cn1cnc(CN2CC[C@H](n3c(=O)n(-c4ccc(-c5ccccc5)cc4)c4cccnc43)C2)c1 [Example 6, (S)-1-([1,1′-Biphenyl]-4-yl)-3-(1-((1-methyl-1H-imidazol-4-yl)methyl)pyrrolidin-3-yl)-1,3-dihydro-2H-imidazo[4,5-b]pyridin-2-one hydrochloride]"
15.6,–,"O=c1n(-c2ccc(-c3ccccc3)cc2)c2cccnc2n1[C@H]1CCN(Cc2ncc[nH]2)C1 [Example 7, (S)-3-(1-((1H-Imidazol-2-yl)methyl)pyrrolidin-3-yl)-1-([1,1′-biphenyl]-4-yl)-1,3-dihydro-2H-imidazo[4,5-b]pyridin-2-one]"
–,29,"O=c1n(-c2ccc(-c3ccccc3)cc2)c2cccnc2n1[C@H]1CCN(Cc2ncccc2O)C1 [Example 8, (S)-1-([1,1′-Biphenyl]-4-yl)-3-(1-((3-hydroxypyridin-2-yl)methyl)pyrrolidin-3-yl)-1,3-dihydro-2H-imidazo[4,5-b]pyridin-2-one]"
8.03,–,"O=c1n(-c2ccc(-c3ccccc3)cc2)c2cccnc2n1[C@H]1CCN(Cc2ccc(O)cn2)C1 [Example 9, (S)-1-([1,1′-Biphenyl]-4-yl)-3-(1-((5-hydroxypyridin-2-yl)methyl)pyrrolidin-3-yl)-1,3-dihydro-2H-imidazo[4,5-b]pyridin-2-one]"
5.49,–,"O=c1n(-c2ccc(-c3ccccc3)cc2)c2cccnc2n1[C@H]1CCN(Cc2cc(O)ccn2)C1 [Example 10, (S)-1-([1,1′-Biphenyl]-4-yl)-3-(1-((4-hydroxypyridin-2-yl)methyl)pyrrolidin-3-yl)-1,3-dihydro-2H-imidazo[4,5-b]pyridin-2-one]"
85.4,–,"Cn1ccnc1CN1CC[C@H](n2c(=O)n(-c3ccccc3)c3cccnc32)C1 [Example 11, (S)-3-(1-((1-Methyl-1H-imidazol-2-yl)methyl)pyrrolidin-3-yl)-1-phenyl-1,3-dihydro-2H-imidazo[4,5-b]pyridin-2-one hydrochloride]"
4.95,–,"Cn1ccnc1CN1CCC(n2c(=O)n(-c3ccc(-c4ccccc4)cc3)c3cccnc32)CC1 [Example 12, 1-([1,1′-Biphenyl]-4-yl)-3-(1-((1-methyl-1H-imidazol-2-yl)methyl)piperidin-4-yl)-1,3-dihydro-2H-imidazo[4,5-b]pyridin-2-one]"
0.12,–,"Cn1ccnc1CN1CC(n2c(=O)n(-c3ccc(-c4ccccc4)cc3)c3cccnc32)C1 [Example 13, 1-([1,1′-Biphenyl]-4-yl)-3-(1-((1-methyl-1H-imidazol-2-yl)methyl)azetidin-3-yl)-1,3-dihydro-2H-imidazo[4,5-b]pyridin-2-one]"
0.36,–,"Cn1ccnc1CN1CC[C@H](n2c(=O)n(-c3ccc(-c4ccc(O)cc4)cc3)c3cccnc32)C1 [Example 14, (S)-1-(4′-Hydroxy-[1,1′-biphenyl]-4-yl)-3-(1-((1-methyl-1H-imidazol-2-yl)methyl)pyrrolidin-3-yl)-1,3-dihydro-2H-imidazo[4,5-b]pyridin-2-one]"
64.5,–,"COC(=O)c1ccc(-n2c(=O)n([C@H]3CCN(Cc4ncccc4C)C3)c3ncccc32)cc1 [Example 15, Methyl (S)-4-(3-(1-((3-methylpyridin-2-yl)methyl)pyrrolidin-3-yl)-2-oxo-2,3-dihydro-1H-imidazo[4,5-b]pyridin-1-yl)benzoate]"
0.14,–,"O=C(O)c1ccnc(CN2CC[C@H](n3c(=O)n(-c4ccc(-c5ccccc5)cc4)c4cccnc43)C2)c1 [Example 16, (S)-2-((3-(1-([1,1′-Biphenyl]-4-yl)-2-oxo-1,2-dihydro-3H-imidazo[4,5-b]pyridin-3-yl)pyrrolidin-1-yl)methyl)isonicotinic acid]"
0.52,–,"O=C(O)c1ccc(CN2CC[C@H](n3c(=O)n(-c4ccc(-c5ccccc5)cc4)c4cccnc43)C2)nc1 [Example 17, (S)-6-((3-(1-([1,1′-Biphenyl]-4-yl)-2-oxo-1,2-dihydro-3H-imidazo[4,5-b]pyridin-3-yl)pyrrolidin-1-yl)methyl)nicotinic acid]"
1.95,–,"COc1ccc(-n2c(=O)n([C@H]3CCN(Cc4cc(C(=O)O)ccn4)C3)c3ncccc32)cc1 [Example 18, (S)-2-((3-(1-(4-Methoxyphenyl)-2-oxo-1,2-dihydro-3H-imidazo[4,5-b]pyridin-3-yl)pyrrolidin-1-yl)methyl)isonicotinic acid]"
6.34,–,"O=C(O)c1ccnc(CN2CC[C@H](n3c(=O)n(-c4ccccc4)c4cccnc43)C2)c1 [Example 19, (S)-2-((3-(2-Oxo-1-phenyl-1,2-dihydro-3H-imidazo[4,5-b]pyridin-3-yl)pyrrolidin-1-yl)methyl)isonicotinic acid]"
6.71,–,"Cn1ccnc1CN1CC[C@H](n2c(=O)n(-c3ccc(-c4ccccc4)cc3)c3ccc(C(=O)O)nc32)C1 [Example 20, (S)-1-([1,1′-Biphenyl]-4-yl)-3-(1-((1-methyl-1H-imidazol-2-yl)methyl)pyrrolidin-3-yl)-2-oxo-2,3-dihydro-1H-imidazo[4,5-b]pyridine-5-carboxylic acid]"
–,39,"Cc1cccnc1CN1CC[C@H](n2c(=O)n(-c3ccc(C(=O)O)cc3)c3cccnc32)C1 [Example 21, (S)-4-(3-(1-((3-Methylpyridin-2-yl)methyl)pyrrolidin-3-yl)-2-oxo-2,3-dihydro-1H-imidazo[4,5-b]pyridin-1-yl)benzoic acid hydrochloride]"
0.3,–,"Cn1c(C(=O)O)cnc1CN1CC[C@H](n2c(=O)n(-c3ccc4ccccc4c3)c3cccnc32)C1 [Example 22, (S)-1-Methyl-2-((3-(1-(naphthalen-2-yl)-2-oxo-1,2-dihydro-3H-imidazo[4,5-b]pyridin-3-yl)pyrrolidin-1-yl)methyl)-1H-imidazole-5-carboxylic acid]"
